Values quoted from earlier work in patent publication US20260138960A1, “A PROCESS FOR THE PREPARATION OF CRYSTALLINE FORM OF TAFAMIDIS” (BIOPHORE INDIA PHARMACEUTICALS PVT. LTD, priority 2022, published 2026).

Conditions: poorly soluble, but permeate biological membranes well

Row | biopharmaceutical classification system (BCS) class | SMILES
1 | class II | CNC[C@H](O)[C@@H](O)[C@H](O)[C@H](O)CO.O=C(O)c1ccc2nc(-c3cc(Cl)cc(Cl)c3)oc2c1 [Tafamidis meglumine]
2 | class II | O=C(O)c1ccc2nc(-c3cc(Cl)cc(Cl)c3)oc2c1 [Tafamidis, 2-(3,5-dichlorophenyl)-1,3-benzoxazole-6-carboxylic acid]
